rIP data for ten compounds are collected here from patent publication US9260467B2, “Sialic acid dimers” (priority 2011, dated 2016).

The target of the experiment is T1, Siglec-2 (CD22) (Homo sapiens, UniProt P20273).
T1 sequence (P20273 20-847): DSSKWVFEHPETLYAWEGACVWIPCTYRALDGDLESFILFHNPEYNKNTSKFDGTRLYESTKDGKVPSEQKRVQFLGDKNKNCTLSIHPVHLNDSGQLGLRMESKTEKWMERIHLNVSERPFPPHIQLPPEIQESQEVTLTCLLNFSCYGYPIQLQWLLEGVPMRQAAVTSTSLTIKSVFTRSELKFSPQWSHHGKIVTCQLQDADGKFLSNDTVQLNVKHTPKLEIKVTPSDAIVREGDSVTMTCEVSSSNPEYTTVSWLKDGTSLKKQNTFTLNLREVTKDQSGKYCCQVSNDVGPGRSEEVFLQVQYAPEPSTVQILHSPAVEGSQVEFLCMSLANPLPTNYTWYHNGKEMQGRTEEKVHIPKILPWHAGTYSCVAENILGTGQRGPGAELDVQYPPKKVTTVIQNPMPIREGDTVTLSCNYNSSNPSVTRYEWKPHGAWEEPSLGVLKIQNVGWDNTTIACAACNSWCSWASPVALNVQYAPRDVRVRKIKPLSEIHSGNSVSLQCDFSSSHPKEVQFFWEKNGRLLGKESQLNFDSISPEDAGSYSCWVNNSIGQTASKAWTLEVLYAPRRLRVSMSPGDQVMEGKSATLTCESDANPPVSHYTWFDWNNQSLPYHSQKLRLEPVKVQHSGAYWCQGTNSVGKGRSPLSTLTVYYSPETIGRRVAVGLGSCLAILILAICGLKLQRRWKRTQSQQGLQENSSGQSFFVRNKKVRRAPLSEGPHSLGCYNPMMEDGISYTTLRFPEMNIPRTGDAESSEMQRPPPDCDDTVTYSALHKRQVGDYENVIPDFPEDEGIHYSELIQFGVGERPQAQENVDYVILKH
Briefly: new affinity assay: displacement of biotinylated compound 155 from sialidase-treated Daudi cells, FACS with streptavidin-PE. The arrangement: endogenous in cells; host or cells: Daudi (human B-cell lymphoma line). The class given is binding. Particulars: Table II; rIP values set relative to compound 38; Daudi cells, displacement of compound 155. On the procedure: To determine the affinity of the compound of the formula (I), approximately 5×10^6 to 2×10^8 cells of the human B-cell lymphoma line “Daudi” were incubated with sialidase (A. ureafaciens) at 37° C. for 1 h (final concentration 0.1 unit/ml). […] Batches of 1-2×10^6 cells were transferred to sample vessels, and incubated on ice for 15 min with serial concentrations (10-fold dilutions, 1 mM to 1×10^−7 mM) of the substance under measurement (inhibitor). The reaction volume was 50 μl. Then 50 microliters of compound 155 (4-micromolar) were added, and incubation took place for 20 min Washing with FACS buffer (PBS, 0.1 BSA, 0.01% sodium azide) was followed by incubation with streptavidin-PE in the dark for 15 min, followed by washing and measurement of the bound amount of […] via the streptavidin-PE in the FACS. For the determination of 0% displacement of the compound 155, cells without inhibitor were measured. For the determination of 100% displacement, cells were measured without compound 155 and without inhibitor. For each assay, four substances and one reference were measured. The IC50 values determined in each assay were subsequently converted into values of rIP (relative Inhibitory Potency). […]
With `CC(=O)N[C@H]1[C@H]([C@H](O)[C@H](O)CNC(=O)c2ccc(C3CCCCC3)cc2)O[C@@](OCCCSCCNC(=O)c2ccc(C(=O)NCCSCCCO[C@]3(C(=O)[O-])C[C@H](O)[C@@H](NC(C)=O)[C@H]([C@H](O)[C@H](O)CNC(=O)c4ccc(C5CCCCC5)cc4)O3)cc2)(C(=O)[O-])C[C@@H]1O.[Na+].[Na+]` [Compound 57], the rIP is given as 22.

As to `CC(=O)N[C@H]1[C@H]([C@H](O)[C@H](O)CNC(=O)Cc2ccc3ccccc3c2)O[C@@](OCCCSCCNC(=O)c2ccc(-c3ccc(C(=O)NCCSCCCO[C@]4(C(=O)[O-])C[C@H](O)[C@@H](NC(C)=O)[C@H]([C@H](O)[C@H](O)CNC(=O)Cc5ccc6ccccc6c5)O4)cc3)cc2)(C(=O)[O-])C[C@@H]1O.[Na+].[Na+]` [Compound 127], the rIP is recorded as 74.

On to `CC(=O)N[C@H]1[C@H]([C@H](O)[C@H](O)CNC(=O)c2ccc(-c3ccccc3)cc2)O[C@@](OCCCSCCC(=O)Nc2ccccc2NC(=O)CCSCCCO[C@]2(C(=O)[O-])C[C@H](O)[C@@H](NC(C)=O)[C@H]([C@H](O)[C@H](O)CNC(=O)c3ccc(-c4ccccc4)cc3)O2)(C(=O)[O-])C[C@@H]1O.[Na+].[Na+]` [Compound 42], for which the rIP was found to be 359.

Regarding `CC(=O)N[C@H]1[C@H]([C@H](O)[C@H](O)CNC(=O)c2ccc(-c3ccccn3)cc2)O[C@@](OCCCSCCNC(=O)c2ccc(C(=O)NCCSCCCO[C@]3(C(=O)[O-])C[C@H](O)[C@@H](NC(C)=O)[C@H]([C@H](O)[C@H](O)CNC(=O)c4ccc(-c5ccccn5)cc4)O3)cc2)(C(=O)[O-])C[C@@H]1O.[Na+].[Na+]` [Compound 77], the rIP worked out at 95.

`CC(=O)N[C@H]1[C@H]([C@H](O)[C@H](O)CNc2c(NCc3ccccc3)c(=O)c2=O)O[C@@](OCCCSCCNC(=O)c2ccc(C(=O)NCCSCCCO[C@]3(C(=O)[O-])C[C@H](O)[C@@H](NC(C)=O)[C@H]([C@H](O)[C@H](O)CNc4c(NCc5ccccc5)c(=O)c4=O)O3)cc2)(C(=O)[O-])C[C@@H]1O.[Na+].[Na+]` [Compound 134] yielded a rIP of 70.

The compound `CC(=O)N[C@H]1[C@H]([C@H](O)[C@H](O)CNC(=O)c2ccc(-c3ccccc3)cc2)O[C@@](OCCCSCCC(=O)Nc2cccc(NC(=O)CCSCCCO[C@]3(C(=O)[O-])C[C@H](O)[C@@H](NC(C)=O)[C@H]([C@H](O)[C@H](O)CNC(=O)c4ccc(-c5ccccc5)cc4)O3)c2)(C(=O)[O-])C[C@@H]1O.[Na+].[Na+]` [Compound 41] returned a rIP of 423.

In the case of `CC(=O)N[C@H]1[C@H]([C@H](O)[C@H](O)CNC(=O)c2ccc(-c3ccccc3)s2)O[C@@](OCCCSCCNC(=O)c2ccc(C(=O)NCCSCCCO[C@]3(C(=O)[O-])C[C@H](O)[C@@H](NC(C)=O)[C@H]([C@H](O)[C@H](O)CNC(=O)c4ccc(-c5ccccc5)s4)O3)cc2)(C(=O)[O-])C[C@@H]1O.[Na+].[Na+]` [Compound 65], the rIP was found to be 106.

For `CC(=O)N[C@H]1[C@H]([C@H](O)[C@H](O)CNC(=O)c2ccc(-c3ccccc3)cc2)O[C@@](OCCC[S+]([O-])CCNC(=O)c2ccc(C(=O)NCC[S+]([O-])CCCO[C@]3(C(=O)[O-])C[C@H](O)[C@@H](NC(C)=O)[C@H]([C@H](O)[C@H](O)CNC(=O)c4ccc(-c5ccccc5)cc4)O3)cc2)(C(=O)[O-])C[C@@H]1O.[Na+].[Na+]` (stereo partly shown) [Compound 132], the rIP is 212.

As for `CC(=O)N[C@H]1[C@H]([C@H](O)[C@H](O)CNC(=O)c2ccc(-c3ccc(C(=O)[O-])cc3)cc2)O[C@@](OCCCSCCNC(=O)c2ccc(C(=O)NCCSCCCO[C@]3(C(=O)[O-])C[C@H](O)[C@@H](NC(C)=O)[C@H]([C@H](O)[C@H](O)CNC(=O)c4ccc(-c5ccc(C(=O)[O-])cc5)cc4)O3)cc2)(C(=O)[O-])C[C@@H]1O.[Na+].[Na+].[Na+].[Na+]` [Compound 68], the rIP is 5.

Regarding `CC(=O)N[C@H]1[C@H]([C@H](O)[C@H](O)CNC(=O)Cc2ccc3ccccc3c2)O[C@@](OCCCSCCNC(=O)c2ccc(C(=O)NCCSCCCO[C@]3(C(=O)[O-])C[C@H](O)[C@@H](NC(C)=O)[C@H]([C@H](O)[C@H](O)CNC(=O)Cc4ccc5ccccc5c4)O3)cc2)(C(=O)[O-])C[C@@H]1O.[Na+].[Na+]` [Compound 66], the rIP came out at 197.
